Patent US6770597B2, “Benzohydrazide derivatives as herbicides and desiccant compositions containing them” (Ishihara Sangyo Kaisha, Ltd., priority 2002, dated 2004)

How the values were obtained:
Format in all cases: in vivo
[1] = system: field corn (Zea mays L., var. Dekalb 535, CORN); assay: Greenhouse herbicide screen, pre-emerge application, crop damage rating; settings: PRE emergent, 14 days after application, rating scale 0-100
Source text: (§1) A standard greenhouse herbicide activity screening system was used to evaluate the herbicidal efficacy and crop safety of these test compounds. Seven broadleaf weed species including redroot pigweed (Amaranthus retrofiexus, AMARE), velvetleaf (Abutilon theophrasti, ABUTH), sicklepod (Cassia obtusifolia, CASOB), ivyleaf morningglory (Ipomoea hederacea, IPOHE), lambsquarters (Chenopodium album, CHEAL), common ragweed (Ambrosia artemisiifolia L., AMBEL), and cocklebur (Xanthium strumarium, XANST) were used as test species. Four grass weed species including green foxtail (Setaria viridis, SETVI), barnyardgrass (Echinochloa crus-galli, ECHCG), johnsongrass (Sorghum halepense, SORHA), and large crabgrass (Digitaria sanguinalis, DIGSA) were also used. In addition, four crop species, field corn (Zea mays L., var. Dekalb 535, CORN), soybean (Glycine max L., var. Pella 86, SOY), upland rice (Oryza sp., var.Cocodrie, RICE) and wheat (Triticum aestivum L.) were included.
(§2) All plants were grown in 10 cm square plastic pots which were filled with a sandy loam soil mix. For pre-emerge tests, seeds were planted one day prior to application of the test compounds. For post-emerge tests, seeds were planted 8-21 days prior to the test to allow emergence and good foliage development prior to application of the test substances. At the time of the post-emerge application, plants of all species were usually at the 2-3 leaf stage of development.
(§3) All test compounds were dissolved in acetone and applied to the test units in a volume of 187 l/ha. Test materials were applied at rates ranging from 15 g ai/ha to 1000 g ai/ha using a track sprayer equipped with a TJ8001E even flow flat fan spray nozzle. Plants were arranged on a shelf so that the top of the canopy (post-emerge) or top of the soil surface (pre-emerge) was 40-45 cm below the nozzle. Pressurized air was used to force the test solution through the nozzle as it was mechanically advanced (via electrically driven chain drive) over the top of all test plants/pots. This application simulates a typical commercial field herbicide application.
(§4) Pre-emergence tests were top watered immediately after treatment to incorporate the test materials, then routinely top-watered for normal growth. Post-emerge test units were always bottom-watered.
(§5) At 14 days after application of the test materials, phytotoxicity ratings were recorded. A rating scale of 0-100 was used as previously described in Research Methods in Weed Science, 2nd edition, B. Truelove, Ed., Southern Weed Science Society, Auburn University, Auburn, Ala., 1977. Briefly, “0” corresponds to no damage and “100” corresponds to complete death of all plants in the test unit. This scale was used both to determine efficacy against weed species and damage to crop species. Herbicide activity data for various compounds of this invention, which are shown by compound No. in Tables 1-12, are shown in Tables 13 and 14.

[2] = system: upland rice (Oryza sp., var.Cocodrie, RICE); assay: as above; settings: PRE emergent, 14 days after application, rating scale 0-100
Source text: as §1, §2, §3, §4, §5

[3] = system: green foxtail (Setaria viridis, SETVI); assay: Greenhouse herbicide screen, post-emerge application, phytotoxicity rating; settings: POST emergent, 14 days after application, scale 0-100
Summary of the method: (§6)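 Sown 1 d (pre) or 8–21 d (post) ahead; sprayed 15–1000 g ai/ha in acetone, 187 l/ha; nozzle 40–45 cm above canopy/soil; scored 0–100 at day 14.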

[4] = system: lambsquarters (Chenopodium album, CHEAL); assay: as above; settings: POST emergent, 14 days after application, scale 0-100
Summary of the method: as §6

[5] = system: ivyleaf morningglory (Ipomoea hederacea, IPOHE); assay: as above; settings: POST emergent, 14 days after application, scale 0-100
Summary of the method: as §6

[6] = system: large crabgrass (Digitaria sanguinalis, DIGSA); assay: as above; settings: POST emergent, 14 days after application, scale 0-100
Summary of the method: as §6

[7] = system: barnyardgrass (Echinochloa crus-galli, ECHCG); assay: as above; settings: POST emergent, 14 days after application, scale 0-100
Summary of the method: as §6

[8] = system: sicklepod (Cassia obtusifolia, CASOB); assay: as above; settings: POST emergent, 14 days after application, scale 0-100
Summary of the method: as §6

[9] = system: johnsongrass (Sorghum halepense, SORHA); assay: as above; settings: POST emergent, 14 days after application, scale 0-100
Summary of the method: as §6

[10] = system: common ragweed (Ambrosia artemisiifolia L., AMBEL); assay: as above; settings: POST emergent, 14 days after application, scale 0-100
Summary of the method: as §6

[11] = system: cocklebur (Xanthium strumarium, XANST); assay: as above; settings: POST emergent, 14 days after application, scale 0-100
Summary of the method: as §6

[12] = system: redroot pigweed (Amaranthus retrofiexus, AMARE); assay: as above; settings: POST emergent, 14 days after application
Summary of the method: as §6

[13] = system: velvetleaf (Abutilon theophrasti, ABUTH); assay: as above; settings: POST emergent, 14 days after application, scale 0-100
Summary of the method: as §6

[14] = system: green foxtail (Setaria viridis, SETVI); assay: Greenhouse herbicide screen, pre-emerge application, phytotoxicity rating; settings: PRE emergent, 14 days after application, rating scale 0-100
Summary of the method: as §6

[15] = system: lambsquarters (Chenopodium album, CHEAL); assay: as above; settings: PRE emergent, 14 days after application, rating scale 0-100
Summary of the method: as §6

[16] = system: ivyleaf morningglory (Ipomoea hederacea, IPOHE); assay: as above; settings: PRE emergent, 14 days after application, rating scale 0-100
Summary of the method: as §6

[17] = system: large crabgrass (Digitaria sanguinalis, DIGSA); assay: as above; settings: PRE emergent, 14 days after application, rating scale 0-100
Summary of the method: as §6

[18] = system: barnyardgrass (Echinochloa crus-galli, ECHCG); assay: as above; settings: PRE emergent, 14 days after application, rating scale 0-100
Summary of the method: as §6

[19] = system: sicklepod (Cassia obtusifolia, CASOB); assay: as above; settings: PRE emergent, 14 days after application, rating scale 0-100
Summary of the method: as §6

[20] = system: johnsongrass (Sorghum halepense, SORHA); assay: as above; settings: PRE emergent, 14 days after application, rating scale 0-100
Summary of the method: as §6

[21] = system: common ragweed (Ambrosia artemisiifolia L., AMBEL); assay: as above; settings: PRE emergent, 14 days after application, rating scale 0-100
Summary of the method: as §6

[22] = system: cocklebur (Xanthium strumarium, XANST); assay: as above; settings: PRE emergent, 14 days after application, rating scale 0-100
Summary of the method: as §6

[23] = system: redroot pigweed (Amaranthus retrofiexus, AMARE); assay: as above; settings: PRE emergent, 14 days after application, rating scale 0-100
Summary of the method: as §6

[24] = system: velvetleaf (Abutilon theophrasti, ABUTH); assay: as above; settings: PRE emergent, 14 days after application, rating scale 0-100
Summary of the method: as §6

[25] = system: field corn (Zea mays L., var. Dekalb 535, CORN); assay: Greenhouse herbicide screen, post-emerge application, crop damage rating; settings: POST emergent, 14 days after application, scale 0-100
Source text: as §1, §2, §3, §4, §5

[26] = system: upland rice (Oryza sp., var.Cocodrie, RICE); assay: as above; settings: POST emergent, 14 days after application, scale 0-100
Source text: as §1, §2, §3, §4, §5

In the case of `CC1CCCC(C)N1NC(=O)c1cc(-n2c(=O)cc(C(F)(F)F)n(C)c2=S)c(F)cc1Cl` (stereo not shown) [Compound 1-15], the “crop damage rating CORN” value ([1]; 63 g ai/ha) is reported as 25, the “crop damage rating CORN” value ([1]; 250 g ai/ha) is reported as 100 and the “crop damage rating RICE” value ([2]; 63 g ai/ha) is reported as 55. The “crop damage rating RICE” value ([2]; 250 g ai/ha) was 70, the “phytotoxicity rating SETVI” value ([3]; 63 g ai/ha) was 20 and the “phytotoxicity rating SETVI” value ([3]; 250 g ai/ha) was 55. The “phytotoxicity rating CHEAL” value ([4]; 63 g ai/ha) was 98, the “phytotoxicity rating CHEAL” value ([4]; 250 g ai/ha) was 100 and the “phytotoxicity rating IPOHE” value ([5]; 63 g ai/ha) was 75. For the same compound, the “phytotoxicity rating IPOHE” value ([5]; 250 g ai/ha) was 100, the “phytotoxicity rating DIGSA” value ([6]; 63 g ai/ha) was 10 and the “phytotoxicity rating DIGSA” value ([6]; 250 g ai/ha) was 10. The “phytotoxicity rating ECHCO” value ([7]; 63 g ai/ha) was 50, the “phytotoxicity rating ECHCO” value ([7]; 250 g ai/ha) was 80 and the “phytotoxicity rating CASOB” value ([8]; 63 g ai/ha) was 70. For the same compound, the “phytotoxicity rating CASOB” value ([8]; 250 g ai/ha) was 75, the “phytotoxicity rating SORHA” value ([9]; 63 g ai/ha) was 0 and the “phytotoxicity rating SORHA” value ([9]; 250 g ai/ha) was 30. For the same compound, the “phytotoxicity rating AMBEL” value ([10]; 63 g ai/ha) was 80, the “phytotoxicity rating AMBEL” value ([10]; 250 g ai/ha) was 95 and the “phytotoxicity rating XANST” value ([11]; 63 g ai/ha) was 100. For the same compound, the “phytotoxicity rating XANST” value ([11]; 250 g ai/ha) was 100, the “phytotoxicity rating AMARE” value ([12]; 63 g ai/ha, scale 0-100 (0 no damage, 100 complete death)) was 90 and the “phytotoxicity rating AMARE” value ([12]; 250 g ai/ha, scale 0-100) was 100. For the same compound, the “phytotoxicity rating ABUTH” value ([13]; 63 g ai/ha) was 100, the “phytotoxicity rating ABUTH” value ([13]; 250 g ai/ha) was 100 and the “phytotoxicity rating SETVI” value ([14]; 63 g ai/ha) was 100. For the same compound, the “phytotoxicity rating SETVI” value ([14]; 250 g ai/ha) was 100, the “phytotoxicity rating CHEAL” value ([15]; 63 g ai/ha) was 100 and the “phytotoxicity rating CHEAL” value ([15]; 250 g ai/ha) was 100. For the same compound, the “phytotoxicity rating IPOHE” value ([16]; 63 g ai/ha) was 100, the “phytotoxicity rating IPOHE” value ([16]; 250 g ai/ha) was 100 and the “phytotoxicity rating DIGSA” value ([17]; 63 g ai/ha) was 100. The “phytotoxicity rating DIGSA” value ([17]; 250 g ai/ha) was 100, the “phytotoxicity rating ECHCG” value ([18]; 63 g ai/ha) was 75 and the “phytotoxicity rating ECHCG” value ([18]; 250 g ai/ha) was 100. The “phytotoxicity rating CASOB” value ([19]; 63 g ai/ha) was 45, the “phytotoxicity rating CASOB” value ([19]; 250 g ai/ha) was 90 and the “phytotoxicity rating SORHA” value ([20]; 63 g ai/ha) was 100. For the same compound, the “phytotoxicity rating SORHA” value ([20]; 250 g ai/ha) was 100, the “phytotoxicity rating AMBEL” value ([21]; 63 g ai/ha) was 100 and the “phytotoxicity rating AMBEL” value ([21]; 250 g ai/ha) was 100. For the same compound, the “phytotoxicity rating XANST” value ([22]; 63 g ai/ha) was 75, the “phytotoxicity rating XANST” value ([22]; 250 g ai/ha) was 100 and the “phytotoxicity rating AMARE” value ([23]; 63 g ai/ha) was 100. For the same compound, the “phytotoxicity rating AMARE” value ([23]; 250 g ai/ha) was 100, the “phytotoxicity rating ABUTH” value ([24]; 63 g ai/ha) was 100 and the “phytotoxicity rating ABUTH” value ([24]; 250 g ai/ha) was 100. For the same compound, the “crop damage rating CORN” value ([25]; 63 g ai/ha) was 40, the “crop damage rating CORN” value ([25]; 250 g ai/ha) was 60 and the “crop damage rating RICE” value ([26]; 63 g ai/ha) was 0. The “crop damage rating RICE” value ([26]; 250 g ai/ha) was 30.
